# Experimental data taken from patent US20250230193A1, “CYCLIC COMPOUND HAVING SELECTIVE KRAS INHIBITORY EFFECT ON HRAS AND NRAS” (CHUGAI SEIYAKU KABUSHIKI KAISHA, priority 2022, published 2025).
# Where a SMILES comes first, the peptide text is derived from it. Bridges are numbered along the chain shown (N, C = ends). [ ]: non-standard residue; d: D form. The star is where a group is joined. hPhe(3-Cl-4-CF3) = N[C@@H](CCc1ccc(C(F)(F)F)c(Cl)c1)C(=O)O; NPrPhe(4-CF3) = CCCN[C@@H](Cc1ccc(C(F)(F)F)cc1)C(=O)O; NEtPhe(4-CF3) = CCN[C@@H](Cc1ccc(C(F)(F)F)cc1)C(=O)O; NMeGly(cPent) = CN[C@H](C(=O)O)C1CCCC1; Hyp = O=C(O)[C@@H]1C[C@@H](O)CN1; NMeD = CN[C@@H](CC(=O)O)C(=O)O; NMeL = CN[C@@H](CC(C)C)C(=O)O; Morpholide = C1CN(*)CCO1; Ac5c = NC1(C(=O)O)CCCC1; Aze = O=C(O)[C@@H]1CCN1; Sar = CNCC(=O)O
# Legend:
# [1] = molecular target: GDP-bound HRAS wild-type protein (Homo sapiens, UniProt P01112); test: Binding to HRAS by surface plasmon resonance (SPR), Single Cycle Kinetics; details: SPR; for HRAS/KRAS (ratio of KD value with respect to HRAS to KD value with respect to KRAS): GDP-bound HRAS wild-type vs GDP-bound KRAS wild-type
# Sequence of GDP-bound HRAS wild-type protein (P01112 whole entry): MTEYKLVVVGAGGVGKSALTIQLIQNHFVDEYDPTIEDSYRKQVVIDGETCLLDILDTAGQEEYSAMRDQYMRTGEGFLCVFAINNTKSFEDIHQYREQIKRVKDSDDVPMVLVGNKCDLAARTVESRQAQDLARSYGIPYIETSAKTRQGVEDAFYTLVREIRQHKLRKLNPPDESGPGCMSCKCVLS
# [2] = molecular target: GDP-bound NRAS wild-type protein (Homo sapiens, UniProt P01111); test: Binding to NRAS by surface plasmon resonance (SPR), Single Cycle Kinetics; details: SPR; for NRAS/KRAS (ratio of KD value with respect to NRAS to KD value with respect to KRAS): GDP-bound NRAS wild-type vs GDP-bound KRAS wild-type
# Sequence of GDP-bound NRAS wild-type protein (P01111 whole entry): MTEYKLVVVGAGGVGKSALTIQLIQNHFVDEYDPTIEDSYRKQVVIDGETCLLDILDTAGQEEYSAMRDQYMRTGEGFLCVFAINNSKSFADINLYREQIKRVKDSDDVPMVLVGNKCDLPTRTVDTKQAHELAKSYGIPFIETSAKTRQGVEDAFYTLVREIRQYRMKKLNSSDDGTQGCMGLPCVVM
smiles,measurement,setting,value
CCO[C@@H]1C[C@H]2C(=O)NC3(CCC3)C(=O)N(C)[C@@H](C3CCCC3)C(=O)N(C)[C@H](C(=O)N(C)C)CC(=O)N(C)[C@@H](COC)C(=O)N[C@@H]([C@@H](C)CC)C(=O)N(C)CC(=O)N(C)[C@H]3CCCCCN(C3=O)[C@@H](Cc3ccc(C(F)(F)F)cc3)C(=O)N(C)CC(=O)N[C@@H](CCc3cc(F)c(C(F)(F)F)c(F)c3)C(=O)N2C1 [PP0674],HRAS/KRAS (ratio of KD value with respect to GDP-bound HRAS wild-type protein to KD value with respect to KRAS),[1],B (a compound having 3 or more and less than 10 is denoted as B)
same,NRAS/KRAS (ratio of KD value with respect to GDP-bound NRAS wild-type protein to KD value with respect to KRAS),[2],B (a compound having 3 or more and less than 10 is denoted as B)
CC[C@H](C)[C@@H]1NC(=O)[C@H](CC(C)C)N(C)C(=O)C[C@@H](C(=O)N2CCOCC2)N(C)C(=O)[C@H](C2CCCC2)N(C)C(=O)C2(CCCC2)NC(=O)[C@@H]2CCCN2C(=O)[C@H](CCc2ccc(C(F)(F)F)c(Cl)c2)NC(=O)CN(C)C(=O)[C@H](Cc2ccc(C(F)(F)F)cc2)N(CC)C(=O)CN(C)C(=O)CN(C)C1=O [PP0023] ([NMeL]I[Sar][Sar][NEtPhe(4-CF3)][Sar][hPhe(3-Cl-4-CF3)]P[Ac5c][NMeGly(cPent)][NMeD]-Morpholide; lactam N-11),HRAS/KRAS (ratio of KD for GDP-bound HRAS wild-type to KD for KRAS),[1],C (A compound having a KD ratio of 0.1 or more and less than 3 is denoted as C)
same,NRAS/KRAS (ratio of KD for GDP-bound NRAS wild-type to KD for KRAS),[2],B (a compound having 3 or more and less than 10 is denoted as B)
CCO[C@@H]1C[C@H]2C(=O)NC3(CCC3)C(=O)N(C)[C@@H](C3CCCC3)C(=O)N(CCC3CCCC3)[C@H](C(=O)N(C)C)CC(=O)N(C)[C@@H](CC(C)C)C(=O)N[C@@H]([C@@H](C)CC)C(=O)N(C)CC(=O)N(C)[C@H]3CCCCCN(C3=O)[C@@H](Cc3ccc(F)cc3)C(=O)N(C)CC(=O)N[C@@H](CCc3ccc(C(F)(F)F)c(Cl)c3)C(=O)N2C1 [PP0976],HRAS/KRAS (ratio of KD value with respect to HRAS to KD value with respect to KRAS),[1],B (a compound having 3 or more and less than 10 is denoted as B)
same,NRAS/KRAS (ratio of KD value with respect to NRAS to KD value with respect to KRAS),[2],B (a compound having 3 or more and less than 10 is denoted as B)
CCCN1C(=O)[C@@H]2CCN2C(=O)CN(C)C(=O)[C@H]([C@@H](C)CC)NC(=O)[C@H](CC(C)C)N(C)C(=O)C[C@@H](C(=O)N(C)C)NC(=O)[C@H](C2CCCC2)N(C)C(=O)C2(CCCC2)NC(=O)[C@@H]2C[C@@H](OCC)CN2C(=O)[C@H](CCc2ccc(C(F)(F)F)c(Cl)c2)NC(=O)CN(C)C(=O)[C@@H]1Cc1ccc(C(F)(F)F)cc1 [PP0389] ([NMeL]I[Sar][Aze][NPrPhe(4-CF3)][Sar][hPhe(3-Cl-4-CF3)][Hyp](Et)[Ac5c][NMeGly(cPent)]D-NMe2; lactam N-11),HRAS/KRAS (ratio of KD for GDP-bound HRAS wild-type to KD for KRAS),[1],B (a compound having 3 or more and less than 10 is denoted as B)
same,NRAS/KRAS (ratio of KD for GDP-bound NRAS wild-type to KD for KRAS),[2],C (A compound having a KD ratio of 0.1 or more and less than 3 is denoted as C)
CCO[C@@H]1C[C@H]2C(=O)NC3(CCC3)C(=O)N(C)[C@@H](C3CCCC3)C(=O)N(C)[C@H](C(=O)N(C)C)CC(=O)N(C)[C@@H](CC3CCCC3)C(=O)N[C@@H]([C@@H](C)CC)C(=O)N(C)CC(=O)N(C)[C@H]3CCCCN(C3=O)[C@@H](Cc3ccc(C(F)(F)F)cc3)C(=O)N(C)CC(=O)N[C@@H](CCc3cc(F)c(C(F)(F)F)c(F)c3)C(=O)N2C1 [PP0700],HRAS/KRAS (ratio of KD value with respect to GDP-bound HRAS wild-type protein to KD value with respect to KRAS),[1],B (a compound having 3 or more and less than 10 is denoted as B)
same,NRAS/KRAS (ratio of KD value with respect to GDP-bound NRAS wild-type protein to KD value with respect to KRAS),[2],C (A compound having a KD ratio of 0.1 or more and less than 3 is denoted as C)
CCO[C@@H]1C[C@H]2C(=O)NC3(CCC3)C(=O)N(C)[C@@H](C3CCCC3)C(=O)N(C)[C@H](C(=O)N(C)C)CC(=O)N(C)[C@@H](Cc3cccc(F)c3)C(=O)N[C@@H]([C@@H](C)CC)C(=O)N(C)CC(=O)N(C)[C@H]3CCCCCN(C3=O)[C@@H](Cc3ccc(C(F)(F)F)cc3)C(=O)N(C)CC(=O)N[C@@H](CCc3cc(F)c(C(F)(F)F)c(F)c3)C(=O)N2C1 [PP0935],HRAS/KRAS (ratio of KD value with respect to HRAS to KD value with respect to KRAS),[1],B (a compound having 3 or more and less than 10 is denoted as B)
same,NRAS/KRAS (ratio of KD value with respect to NRAS to KD value with respect to KRAS),[2],B (a compound having 3 or more and less than 10 is denoted as B)
CCO[C@@H]1C[C@H]2C(=O)NC3(CCC3)C(=O)N(C)[C@@H](C3CCCC3)C(=O)N(CCc3ccccc3)[C@H](C(=O)N(C)C)CC(=O)N(C)[C@@H](CC)C(=O)N[C@@H]([C@@H](C)CC)C(=O)N(C)CC(=O)N(C)[C@H]3CCCCN(C3=O)[C@@H](Cc3ccc(C(F)(F)F)cc3)C(=O)N(C)CC(=O)N[C@@H](CCc3cc(F)c(C(F)(F)F)c(F)c3)C(=O)N2C1 [PP0647],HRAS/KRAS (ratio of KD value with respect to GDP-bound HRAS wild-type protein to KD value with respect to KRAS),[1],B (a compound having 3 or more and less than 10 is denoted as B)
same,NRAS/KRAS (ratio of KD value with respect to GDP-bound NRAS wild-type protein to KD value with respect to KRAS),[2],C (A compound having a KD ratio of 0.1 or more and less than 3 is denoted as C)
